Patent US20230365530A1, “QUINAZOLINE-2,4-DIAMINE DERIVATIVE AND PHARMACEUTICAL COMPOSITION FOR PREVENTING OR TREATING CANCER COMPRISING SAME AS ACTIVE INGREDIENT” (THE ASEAN FOUNDATION, priority 2020, published 2023)

Biological target: EHMT2 (Euchromatic histone-lysine N-methyltransferase 2) (Homo sapiens (Human), UniProt Q96KQ7)
Assay: EHMT2 enzyme inhibition, LANCE TR-FRET
Assay type: biochemical
Settings: histone H3 peptide, 1 hour at room temperature
Method: In order to analyze the enzyme inhibitory efficacy of the compounds of Examples 1 to 89, EHMT2 (Euchromatic histone-lysine N-methyltransferase 2) enzyme activity was measured using the LANCE TR-FRET™ analysis method of Perkin Elmer. When the EHMT2 enzyme is activated, the 9th lysine residue of the biotinylated-histone peptide is methylated and the EU-conjugated antibody is combined to the methylated histone peptide. Then, when the complex is irradiated with light of excitation wavelength, the complex emits light having a wavelength of 665 nm through FRET phenomenon. Accordingly, fluorescence was measured, and IC50 values were calculated through a software to evaluate the EHMT2 enzyme activity inhibitory effect of the compounds of Examples 1 to 89.
Specific experimental methods are as follows. First, the compounds of Examples 1 to 89 of 1 nM to 100 μM (4× conc.) were put into a 384 well plate (25 μL/well), and 2 μM EEMT2/G9a enzyme (4× conc.) was put into the 384 well plate (25 μL/well). The plate was then centrifuged at 1,500 rpm for 5 seconds after sealing the plate with plate sealing foil. After incubating the EHMT2/G9a enzyme, SAM, and the compounds of Examples above at room temperature for 10 minutes, 2 μM histone H3 peptide (4× conc.) was added to the 384-well plate (25 μL/well). After sealing the plate with plate sealing foil and centrifuging at 1,500 rpm for 5 seconds, an enzymatic reaction was performed at room temperature for 1 hour. Upon completion of the enzyme reaction, 5 μL each of 200 nM Ulight™-Streptavidin (4× conc.) and 8 nM Eu-antibody (4× conc.) was added to each well of the plate. The plate was sealed with plate sealing foil, centrifuged at 1,500 rpm for 5 seconds and reacted at room temperature for 1 hour. The signal values were measured with Envision (Ex 320 nm, Em 665 nm), and all background values obtained by reacting without enzyme were deleted from the measured raw data values. Then, the EHMT2 enzyme activity inhibitory effect of the compounds of Examples 1 to 89 was converted into % values, and compared with the EHMT2 activity when treated with 4% DMSO vehicle (=0 nM compound) as 100%.

Sequence of EHMT2 (Euchromatic histone-lysine N-methyltransferase 2) (Q96KQ7 whole entry): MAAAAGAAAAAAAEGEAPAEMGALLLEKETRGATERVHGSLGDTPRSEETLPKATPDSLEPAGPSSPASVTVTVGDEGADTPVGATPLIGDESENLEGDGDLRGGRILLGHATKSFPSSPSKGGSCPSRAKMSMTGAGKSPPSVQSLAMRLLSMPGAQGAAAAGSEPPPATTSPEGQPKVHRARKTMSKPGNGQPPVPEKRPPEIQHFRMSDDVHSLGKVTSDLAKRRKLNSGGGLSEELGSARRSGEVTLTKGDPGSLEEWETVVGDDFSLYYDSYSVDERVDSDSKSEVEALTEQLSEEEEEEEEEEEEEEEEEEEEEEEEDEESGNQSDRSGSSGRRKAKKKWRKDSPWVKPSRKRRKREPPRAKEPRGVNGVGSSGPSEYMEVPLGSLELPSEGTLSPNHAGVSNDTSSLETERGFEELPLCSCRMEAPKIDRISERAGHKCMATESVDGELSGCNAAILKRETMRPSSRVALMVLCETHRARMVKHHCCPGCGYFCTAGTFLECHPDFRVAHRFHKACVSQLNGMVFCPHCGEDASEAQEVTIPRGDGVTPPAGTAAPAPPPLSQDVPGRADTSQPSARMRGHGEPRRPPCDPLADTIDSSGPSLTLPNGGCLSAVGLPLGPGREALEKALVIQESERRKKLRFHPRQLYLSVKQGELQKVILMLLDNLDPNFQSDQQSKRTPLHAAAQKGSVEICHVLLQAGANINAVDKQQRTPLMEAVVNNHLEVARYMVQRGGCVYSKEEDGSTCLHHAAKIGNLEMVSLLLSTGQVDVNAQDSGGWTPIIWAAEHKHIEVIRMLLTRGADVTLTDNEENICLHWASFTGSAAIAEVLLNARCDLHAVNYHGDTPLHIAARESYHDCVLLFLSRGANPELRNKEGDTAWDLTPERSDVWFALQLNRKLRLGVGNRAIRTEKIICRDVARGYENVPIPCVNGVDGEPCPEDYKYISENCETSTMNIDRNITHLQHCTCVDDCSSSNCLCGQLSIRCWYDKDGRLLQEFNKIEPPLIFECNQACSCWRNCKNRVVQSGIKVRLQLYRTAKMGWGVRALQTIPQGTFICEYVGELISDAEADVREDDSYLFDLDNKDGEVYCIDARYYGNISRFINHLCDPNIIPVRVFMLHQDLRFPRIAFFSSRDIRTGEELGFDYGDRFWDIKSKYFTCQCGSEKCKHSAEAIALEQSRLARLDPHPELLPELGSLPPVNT

`COc1cc2c(NC3CCN(C(C)C)CC3)nc(N(C)C)nc2cc1C#CCCN1CCCCC1` [Example 44, N-(1-isopropylpiperidine-4-yl)-6-methoxy-N2,N2-dimethyl-7-(4-(piperidine-1-yl)-1-butyne-1-yl)quinazoline-2,4-diamine] and `CCN1CCC(Nc2nc(N(C)C)nc3cc(C#CCCN4CCCC4)c(OC)cc23)CC1` [Example 63, N4-(1-ethylpiperidine-4-yl)-6-methoxy-N2,N2-dimethyl-7-(4-(-pyrrolidine-1-yl)-1-butyne-1-yl)quinazoline-2,4-diamine] cannot be ordered by IC50: under 0.1 µM for the first, under 0.1 µM for the second.

`COc1cc2c(NCCN3CCCC3)nc(N3CCCCC3)nc2cc1C#CCCN(C)C` [Example 20, 7-(4-(dimethylamino)-1-butyne-1-yl)-6-methoxy-2-(piperidine-1-yl)-N-(2-(pyrrolidine-1-yl)ethyl)quinazoline-4-amine] and `COc1cc2c(NCC3CCN(C)CC3)nc(N3CCCCC3)nc2cc1C#CCCN(C)C` [Example 31, 7-(4-(dimethylamino)-1-butyne-1-yl)-6-methoxy-N-((1-methylpiperidine-4-yl)methyl)-2-(piperidine-1-yl)quinazoline-4-amine] fall in the same range of IC50: 1 to 10 µM for the first, 1 to 10 µM for the second.

First: COc1cc2c(NC3CCN(C(C)C)CC3)nc(Nc3cnn(C)c3)nc2cc1C#CCCN1CCCC1 [Example 88, N4-(1-isopropylpiperidine-4-yl)-6-methoxy-N2-(1-methyl-1H-pyrazole-4-yl)-7-(4-(pyrrolidine-1-yl)-1-butyne-1-yl)quinazoline-2,4-diamine]
Second: COc1cc2c(NC3CCN(C(C)C)CC3)nc(N3CCC(F)(F)CC3)nc2cc1C#CCCN1CCCC1 [Example 35, 2-(4,4-difluoropiperidine-1-yl)-N-(1-isopropylpiperidine-4-yl)-6-methoxy-7-(4-(pyrrolidine-1-yl)-1-butyne-1-yl)quinazoline-4-amine]
The IC50 of the first is lower: 0.1 to 1 µM for the first, 1 to 10 µM for the second. The first is the more potent here.

`CCN1CCC(Nc2nc(N3CC[C@@H](F)C3)nc3cc(C#CCCN4CCCC4)c(OC)cc23)CC1` [Example 77, (R)-N-(1-ethylpiperidine-4-yl)-2-(3-fluoropyrrolidine-1-yl)-6-methoxy-7-(4-(pyrrolidine-1-yl)-1-butyne-1-yl)quinazoline-4-amine] and `CCN1CCC(Nc2nc(N3CCCC3)nc3cc(C#CCCN4CC[C@H](F)C4)c(OC)cc23)CC1` [Example 78, (S)-N-(1-ethylpiperidine-4-yl)-7-(4-(3-fluoropyrrolidine-1-yl)-1-butyne-1-yl)-6-methoxy-2-(pyrrolidine-1-yl)quinazoline-4-amine] cannot be ordered by IC50: under 0.1 µM for the first, under 0.1 µM for the second.

First: COc1cc2c(NC3CCN(C(C)C)CC3)nc(N3CCOCC3)nc2cc1C#CCCN(C)C [Example 5, 7-(4-(dimethylamino)-1-butyne-1-yl)-N-(1-isopropylpiperidine-4-yl)-6-methoxy-2-morpholinoquinazoline-4-amine]
Second: COc1cc2c(NC3CCN(C(C)C)CC3)nc(N3CCCCCC3)nc2cc1C#CCCN(C)C [Example 8, 2-(azepane-1-yl)-7-(4-(dimethylamino)-1-butyne-1-yl)-N-(1-isopropylpiperidine-4-yl)-6-methoxyquinazoline-4-amine]
The IC50 of the first is higher: 10 to 100 µM for the first, under 0.1 µM for the second.

First: COc1cc2c(NC3CCN(C(C)C)CC3)nc(N3CCCCC3)nc2cc1C#CCCN1CC(F)C1 [Example 33, 7-(4-(3-fluoroazetidine-1-yl)-1-butyne-1-yl)-N-(1-isopropylpiperidine-4-yl)-6-methoxy-2-(piperidine-1-yl)quinazoline-4-amine]
Second: COc1cc2c(NC3CCN(C(C)C)CC3)nc(N3CCCCC3)nc2cc1C#CCCN1CC[C@H](F)C1 [Example 29, (S)-7-(4-(3-fluoropyrrolidine-1-yl)-1-butyne-1-yl)-N-(1-isopropylpiperidine-4-yl)-6-methoxy-2-(piperidine-1-yl)quinazoline-4-amine]
The IC50 of the first is higher: 10 to 100 µM for the first, 0.1 to 1 µM for the second.

`COc1cc2c(NCc3cccnc3)nc(N3CCCC3)nc2cc1C#CCCN1CCCC1` [Example 71, 6-methoxy-N-(pyridine-3-ylmethyl)-2-(pyrrolidine-1-yl)-7-(4-(pyrrolidine-1-yl)-1-butyne-1-yl)quinazoline-4-amine] and `COc1cc2c(NCc3cccnc3)nc(N3CCCCC3)nc2cc1C#CCCN(C)C` [Example 26, 7-(4-(dimethylamino)-1-butyne-1-yl)-6-methoxy-2-(piperidine-1-yl)-N-(pyridine-3-ylmethyl)quinazoline-4-amine] fall in the same range of IC50: 0.1 to 1 µM for the first, 0.1 to 1 µM for the second.

First: CCN1CCC(Nc2nc(N3CCCCC3)nc3cc(C#CCCN4CCCC4)c(OC)cc23)CC1 [Example 51, N-(1-ethylpiperidine-4-yl)-6-methoxy-2-(piperidine-1-yl)-7-(4-(pyrrolidine-1-yl)-1-butyne-1-yl)quinazoline-4-amine]
Second: COc1cc2c(NC3CCN(C(C)C)CC3)nc(N3CCCCCC3)nc2cc1C#CCCN1CCCCC1 [Example 37, 2-(azepane-1-yl)-N-(1-isopropylpiperidine-4-yl)-6-methoxy-7-(4-(piperidine-1-yl)-1-butyne-1-yl)quinazoline-4-amine]
The IC50 of the first is lower: under 0.1 µM for the first, 0.1 to 1 µM for the second.

`COc1cc2c(NC3CCN(C(C)C)CC3)nc(N3CCCCC3)nc2cc1C#CCCC(=O)N1CCCC1` [Example 2, 5-(4-((1-isopropylpiperidine-4-yl)amino)-6-methoxy-2-(piperidine-1-yl)quinazoline-7-yl)-1-(pyrrolidine-1-yl)4-pentyne-1-one] and `COc1cc2c(NC3CCN(C(C)C)CC3)nc(N3CCCCC3)nc2cc1C#CCCC(=O)N(C)C` [Example 1, 5-(4-((1-isopropylpiperidine-4-yl)amino)-6-methoxy-2-(piperidine-1-yl)quinazoline-7-yl)-N,N-dimethylpentyne-4-amide] fall in the same range of IC50: 10 to 100 µM for the first, 10 to 100 µM for the second.

Compared with `COc1cc2c(NC3CCN(C4CC4)CC3)nc(N3CC[C@@H](F)C3)nc2cc1C#CCCN1CCCC1` [Example 74, (R)-N-(1-cyclopropylpiperidine-4-yl)-2-(3-fluoropyrrolidine-1-yl)-6-methoxy-7-(4-(pyrrolidine-1-yl)-1-butyne-1-yl)quinazoline-4-amine], `COc1cc2c(NC3CCN(C(C)C)CC3)nc(N3CCCCC3)nc2cc1C#CCCN1CCC(C)CC1` [Example 15, N-(1-isopropylpiperidine-4-yl)-6-methoxy-7-(4-(4-methylpiperidine-1-yl)-1-butyne-1-yl)-2-(piperidine-1-yl)quinazoline-4-amine] is higher in IC50: 0.1 to 1 µM for the first, 1 to 10 µM for the second. The first is the more potent here.

`COc1cc2c(NCCN(C)C)nc(N3CC[C@@H](F)C3)nc2cc1C#CCCN1CCCC1` [Example 80, (R)-N1-(2-(3-fluoropyrrolidine-1-yl)-6-methoxy-7-(4-(pyrrolidine-1-yl)-1-butyne-1-yl)quinazoline-4-yl)-N2,N2-dimethylethane-1,2-diamine] and `COc1cc2c(NCCN(C)C)nc(N3CC[C@H](F)C3)nc2cc1C#CCCN1CCCC1` [Example 79, (S)-N1-(2-(3-fluoropyrrolidine-1-yl)-6-methoxy-7-(4-(pyrrolidine-1-yl)-1-butyne-1-yl)quinazoline-4-yl)-N2,N2-dimethylethane-1,2-diamine] fall in the same range of IC50: 0.1 to 1 µM for the first, 0.1 to 1 µM for the second.

`COc1cc2c(NC3CCN(C(C)C)CC3)nc(N3C[C@@H]4C[C@@H]4[C@@H]3CO)nc2cc1C#CCCN1CCCCC1` [Example 47, ((1S,2R,5R)-3-(4-((1-isopropylpiperidine-4-yl)amino)-6-methoxy-7-(4-(piperidine-1-yl)-1-butyne-1-yl)quinazoline-2-yl)-3-azabicyclo[3.1.0]hexane-2-yl)methanol] and `COc1cc2c(NC3CCN(CCO)CC3)nc(N(C)C)nc2cc1C#CCCN1CCCC1` [Example 87, 2-(4-((2-(dimethylamino)-6-methoxy-7-(4-(pyrrolidine-1-yl)-1-butyne-1-yl)quinazoline-4-yl)amino)piperidine-1-yl) ethanol] cannot be ordered by IC50: under 0.1 µM for the first, under 0.1 µM for the second.

First: COc1cc2c(NC3CCN(C(C)C)CC3)nc(N3CCC4(CCCC4)C3)nc2cc1C#CCCN(C)C [Example 9]
Second: COc1cc2c(NC3CCN(C(C)C)CC3)nc(N3CCCC3)nc2cc1/C=C/CCN(C)C [Example 86, (E)-7-(4-(dimethylamino)-1-butene-1-yl)-N-(1-isopropylpiperidine-4-yl)-6-methoxy-2-(pyrrolidine-1-yl)quinazoline-4-amine]
The IC50 of the first is lower: under 0.1 µM for the first, 0.1 to 1 µM for the second. The first is the more potent here.

Compared with `CCCN1CCC(Nc2nc(N(C)C)nc3cc(C#CCCN4CCCC4)c(OC)cc23)CC1` [Example 83, 6-methoxy-N2,N-dimethyl-N4-(1-propylpiperidine-4-yl)-7-(4-(pyrrolidine-1-yl)-1-butyne-1-yl)quinazoline-2,4-diamine], `COc1cc2c(NCCCN(C)C)nc(N3CCCCC3)nc2cc1C#CCCN(C)C` [Example 21, N1-(7-(4-(dimethylamino)-1-butyne-1-yl)-6-methoxy-2-(piperidine-1-yl)quinazoline-4-yl)-N3,N3-dimethylpropane-1,3-diamine] is higher in IC50: under 0.1 µM for the first, 0.1 to 1 µM for the second.
